Data published in US9012446B2, “Amino-oxazines and amino-dihydrothiazine compounds as beta-secretase modulators and methods of use” (Amgen Inc., priority 2010, dated 2015).
Like-named read-outs stand apart in the source and are kept apart here.

How the values were obtained:
Abeta 40 = assay: In vivo inhibition of beta-secretase: Abeta 40 reduction in CSF and brain of the rat; conditions: after 4 hrs; for inhibition in vivo at 10 mg/kg: 10 mpk
Text: In Vivo Inhibition of Beta-Secretase
Several animal models, including mouse, rat, dog, and monkey, may be used to screen for inhibition of beta-secretase activity in vivo following administration of a test compound sample. Animals used in this invention can be wild type, transgenic, or gene knockout animals. For example, the Tg2576 mouse model, prepared and conducted as described in Hsiao et al., 1996, Science 274, 99-102, and other non-transgenic or gene knockout animals are useful to analyze in vivo inhibition of Amyloid beta peptide (Abeta) production in the presence of inhibitory test compounds. Generally, 2 to 18 month old Tg2576 mice, gene knockout mice or non-transgenic animals are administered test compounds formulated in vehicles, such as cyclodextran, phosphate buffers, hydroxypropyl methylcellulose or other suitable vehicles. One to twenty-four hours following the administration of compound, animals are sacrificed, and brains as well as cerebrospinal fluid (CSF) and plasma are removed for analysis of A-beta levels and drug or test compound concentrations (Dovey et al., 2001, Journal of Neurochemistry, 76,173-181) Beginning at time 0, animals are administered by oral gavage, or other means of delivery such as intravenous injection, an inhibitory test compound of up to 100 mg/kg in a standard, conventional formulation, such as 2% hydroxypropyl methylcellulose, 1% Tween80. A separate group of animals receive 2% hydroxypropyl methylcellulose, 1% Tween80 alone, containing no test compound, and serve as a vehicle-control group. At the end of the test period, animals are sacrificed and brain tissues, plasma or cerebrospinal fluid are collected. Brains are either homogenized in 10 volumes (w/v) of 0.2% diethylamine (DEA) in 50 mM NaCl (Best et al., 2005, Journal of Pharmacology and Experimental Therapeutics, 313, 902-908), or in 10 volumes of 0.5% TritonX-100 in Tris-buffered saline (pH at about 7.6). Homogenates are centrifuged at 355,000 g, 4° C. for 30 minutes. CSF or brain supernatants are then analyzed for the presence of A-beta peptide by specific sandwich ELISA assays based on ECL (Electrochemiluminescence) technology. For example, rat Abeta40 is measured using biotinylated-4G8 (Signet) as a capture antibody and Fab40 (an in-house antibody specific to the C-terminal of Abeta40) as a detection antibody. For example, 4 hours after administration of 30 mg/kg oral dose of the test compound in 2% hydroxypropyl methylcellulose, 1% Tween80 (pH2.2) to 200 g male Sprague Dawley rats, amyloid beta peptide levels are measured for reduction by X % and Y % in cerebrospinal fluid and brain, respectively, when compared to the levels measured in the vehicle-treated rats. • Actual vehicles used: Oral: 2% HPMC, 1% Tween80, pH 2.2 • IV: 5% EtOH, 45% Propylene glycol in 5% Dextrose
The compounds of the invention may be shown to reduce the formation and/or deposition of amyloid beta peptide in the cerebrospinal fluid (CSF) as well as in the brain of a mouse or rat at either 3 mpk, 10 mpk or 30 mpk (mpk=mg compound per kg weight of the animal) dosing concentrations after 4 hrs.

Aβ40 = assay: In vitro BACE cell-based assay (Aβ40 sandwich ELISA, cells stably expressing APP); conditions: Homo sapiens, HEK293, average IC50, cell assay, HEK cells
Method in brief: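 APP-stably-expressing cells, grown 24 h in DMEM/10% FBS, received 10-point compound doses starting at 100 μM or 10 μM (0.1% DMSO final). Secreted Aβ40 in supernatants measured by sandwich ELISA with time-resolved europium fluorescence; IC50 from percent inhibition versus concentration.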

BACE = BACE (Homo sapiens, UniProt P56817); assay: In vitro enzymatic BACE FRET assay; type: biochemical; conditions: average IC50, enzyme assay; read-out: BACE 1 FRET assay
Method in brief: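 BACE (0.2 nM) preincubated 1 h with serially diluted inhibitors in 0.05 M acetate pH 4.2, 10% DMSO, 100 uM genapol. FRET peptide substrate (50 nM) added, 1 h incubation, then stopped with Tris to neutral pH. Fluorescence from cleavage read at […].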

[1] = Abeta 40, rat CSF, read-out: % reduction of rat CSF levels at 10 pmk
[2] = Abeta 40, rat brain, read-out: % reduction of rat brain levels at 10 mpk

Sequence of BACE (P56817 46-501, species assumed): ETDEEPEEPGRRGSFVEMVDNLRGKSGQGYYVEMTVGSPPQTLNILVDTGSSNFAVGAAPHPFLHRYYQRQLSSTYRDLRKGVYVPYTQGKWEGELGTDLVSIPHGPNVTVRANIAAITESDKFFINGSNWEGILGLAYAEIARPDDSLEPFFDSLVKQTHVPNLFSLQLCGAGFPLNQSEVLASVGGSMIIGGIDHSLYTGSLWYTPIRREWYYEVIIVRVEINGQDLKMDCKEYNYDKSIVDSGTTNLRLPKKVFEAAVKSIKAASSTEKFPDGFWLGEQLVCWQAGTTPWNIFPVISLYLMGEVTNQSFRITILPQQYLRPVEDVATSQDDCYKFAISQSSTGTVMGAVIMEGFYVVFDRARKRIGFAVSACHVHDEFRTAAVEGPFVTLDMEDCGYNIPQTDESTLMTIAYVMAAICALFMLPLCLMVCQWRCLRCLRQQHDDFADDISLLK

Structure (SMILES)	inhibition in vivo at 10 mg/kg (Abeta 40; [1]) [%]	inhibition in vivo at 10 mg/kg (Abeta 40; [2]) [%]	IC50 (Aβ40) [nM]	IC50 (BACE) [nM]	% reduction of rat CSF levels (Abeta 40; Abeta 40, rat CSF) [% at 3 mpk]	% reduction of rat brain levels (Abeta 40; Abeta 40, rat brain) [% at 3 mpk]
CC(C)(C)C#Cc1cnc2c(c1)[C@]1(COCC(N)=N1)c1cc(-c3cccnc3F)ccc1O2 [Example 89, (S)-3-(3,3-dimethylbut-1-yn-1-yl)-7-(2-fluoropyridin-3-yl)-2′,6′-dihydrospiro[chromeno[2,3-b]pyridine-5,3′-[1,4]oxazin]-5′-amine]	50	41	0.4	0.7		
Cc1ccc(-c2cnc3c(c2)[C@]2(COCC(N)=N2)c2cc(-c4cccnc4F)ccc2O3)cc1 [Example 90, (S)-7-(2-fluoropyridin-3-yl)-3-(p-tolyl)-2′,6′-dihydrospiro[chromeno[2,3-b]pyridine-5,3′-[1,4]oxazin]-5′-amine]			1.2	0.6	7	0
NC1=N[C@@]2(COC1)c1cc(-c3cccnc3F)ccc1Oc1ncc(-c3ccc(F)cc3)cc12 [Example 91, (S)-3-(4-fluorophenyl)-7-(2-fluoropyridin-3-yl)-2′,6′-dihydrospiro[chromeno[2,3-b]pyridine-5,3′-[1,4]oxazin]-5′-amine]	29	3	0.7	0.5		
NC1=N[C@@]2(CCO1)c1cc(-c3cccnc3F)ccc1Oc1c2cc(-c2ccnc(F)c2)nc1F [Example 107, (S)-1-fluoro-7-(2-fluoropyridin-3-yl)-3-(2-fluoropyridin-4-yl)-5′,6′-dihydrospiro[chromeno[2,3-c]pyridine-5,4′-[1,3]oxazin]-2′-amine]	82	72	1.8	0.5		
NC1=N[C@@]2(CCO1)c1cc(-c3cccnc3F)ccc1Oc1c2cc(C2=CCCOC2)nc1F [Example 110, (S)-3-(5,6-dihydro-2H-pyran-3-yl)-1-fluoro-7-(2-fluoropyridin-3-yl)-5′,6′-dihydrospiro[chromeno[2,3-c]pyridine-5,4′-[1,3]oxazin]-2′-amine]	86	79	0.5	0.5		
NC1=N[C@@]2(CCO1)c1cc(-c3cccnc3F)ccc1Oc1cnc(C3=CCOCC3)cc12 [Example 111, (5S)-3-(3,6-dihydro-2H-pyran-4-yl)-7-(2-fluoro-3-pyridinyl)-5′,6′-dihydrospiro[chromeno[2,3-c]pyridine-5,4′-[1,3]oxazin]-2′-amine]	81	67	2.1	1.8		
NC1=N[C@@]2(COC1)c1cc(-c3cncc(F)c3)ccc1Oc1cnc(-c3ccc(F)c(F)c3)cc12 [Example 114, (S)-3-(3,4-difluorophenyl)-7-(5-fluoropyridin-3-yl)-2′,6′-dihydrospiro[chromeno[2,3-c]pyridine-5,3′-[1,4]oxazin]-5′-amine]	54	34	2.3	0.4		
NC1=N[C@@]2(COC1)c1cc(-c3cccnc3)ccc1Oc1cnc(-c3ccc(F)c(F)c3)cc12 [Example 115, (S)-3-(3,4-difluorophenyl)-7-(pyridin-3-yl)-2′,6′-dihydrospiro[chromeno[2,3-c]pyridine-5,3′-[1,4]oxazin]-5′-amine]	38	21	1.6	0.4		
CC(C)(C)COc1cc2c(cn1)Oc1ccc(-c3cccnc3)cc1[C@@]21COCC(N)=N1 [Example 119, (S)-3-(neopentyloxy)-7-(pyridin-3-yl)-2′,6′-dihydrospiro[chromeno[2,3-c]pyridine-5,3′-[1,4]oxazin]-5′-amine]			0.4	0.6	5	6
CC(C)(C)COc1cc2c(cn1)Oc1ccc(-c3cncc(F)c3)cc1[C@@]21COCC(N)=N1 [Example 120, (S)-7-(5-fluoropyridin-3-yl)-3-(neopentyloxy)-2′,6′-dihydrospiro[chromeno[2,3-c]pyridine-5,3′-[1,4]oxazin]-5′-amine]			0.7	0.6	30	24
NC1=N[C@@]2(COC1)c1cc(-c3cncc(F)c3)ccc1Oc1cnc(N3CCC(F)(F)C3)cc12 [Example 122, (S)-3-(3,3-difluoropyrrolidin-1-yl)-7-(5-fluoropyridin-3-yl)-2′,6′-dihydrospiro[chromeno[2,3-c]pyridine-5,3′-[1,4]oxazin]-5′-amine]			0.3	0.6	11	14
CC(C)(C#N)COc1cc2c(cn1)Oc1ccc(-c3cccc(F)c3)cc1[C@@]21COCC(N)=N1 [Example 126, (S)-3-(5′-amino-7-(3-fluorophenyl)-2′,6′-dihydrospiro[chromeno[2,3-c]pyridine-5,3′-[1,4]oxazine]-3-yloxy)-2,2-dimethylpropanenitrile]	25	8	1.5	0.4		
NC1=N[C@@]2(COC1)c1cc(-c3cccnc3F)ccc1Oc1c2cc(N2CCC(F)(F)CC2)nc1F [Example 129, (S)-3-(4,4-difluoropiperidin-1-yl)-1-fluoro-7-(2-fluoropyridin-3-yl)-2′,6′-dihydrospiro[chromeno[2,3-c]pyridine-5,3′-[1,4]oxazin]-5′-amine 2,2,2-trifluoroacetate]	22	17	4.9	0.9		
NC1=N[C@@]2(COC1)c1cc(-c3cccnc3F)ccc1Oc1c(F)cc(C3=CCCOC3)cc12 [Example 132, (S)-2′-(5,6-dihydro-2H-pyran-3-yl)-4′-fluoro-7′-(2-fluoropyridin-3-yl)-2,6-dihydrospiro[[1,4]oxazine-3,9′-xanthen]-5-amine]	38	25	1.3	0.3		
NC1=N[C@@]2(CCO1)c1cc(-c3cncc(F)c3)ccc1Oc1cnc(-c3ccnc(F)c3)cc12 [Example 145, (S)-7-(5-fluoropyridin-3-yl)-3-(2-fluoropyridin-4-yl)-5′,6′-dihydrospiro[chromeno[2,3-c]pyridine-5,4′-[1,3]oxazin]-2′-amine]	78	59	4	5		
NC1=N[C@@]2(CCO1)c1cc(-c3cncc(F)c3)ccc1Oc1cnc(C3=CCCOC3)cc12 [Example 146, (S)-3-(5,6-dihydro-2H-pyran-3-yl)-7-(5-fluoropyridin-3-yl)-5′,6′-dihydrospiro[chromeno[2,3-c]pyridine-5,4′-[1,3]oxazin]-2′-amine]	75	62	1.5	2.2		
NC1=N[C@@]2(CCO1)c1cc(-c3cccnc3F)ccc1Oc1cnc(-c3ccnc(F)c3)cc12 [Example 149, (S)-7-(2-fluoropyridin-3-yl)-3-(2-fluoropyridin-4-yl)-5′,6′-dihydrospiro[chromeno[2,3-c]pyridine-5,4′-[1,3]oxazin]-2′-amine]	80	62	3.8	4.8		
